Where a name gives a salt, the structure may show the parent alone.

One experiment has as its system ACE versus enkephalinase.
Assay: not given
Particulars: reported by Swerts et al.; ACE vs enkephalinase; cited from earlier work.
For `C[C@H](CS)C(=O)N1CCC[C@H]1C(=O)O` [Captopril, 1-(D-3-mercapto-2-methylpropanoyl)-L-proline (S,S), reference compound], the “concentration required to inhibit ACE by 50% lower than that required for the same degree of inhibition of enkephalinase” value is on record as “approximately 1000 fold”.

Another experiment addresses T1, purified enkephalinase Al (Rattus norvegicus, UniProt P07861).
T1 construct: the solubilised enzymes contained in the supernatant separated by DEAE-cellulose column chromatography; from tissue; host or cells: rat striatum, washed membrane pellet solubilised with Triton X-100, DEAE-cellulose then Sephacryl S.300
T1 sequence (P07861 1-750): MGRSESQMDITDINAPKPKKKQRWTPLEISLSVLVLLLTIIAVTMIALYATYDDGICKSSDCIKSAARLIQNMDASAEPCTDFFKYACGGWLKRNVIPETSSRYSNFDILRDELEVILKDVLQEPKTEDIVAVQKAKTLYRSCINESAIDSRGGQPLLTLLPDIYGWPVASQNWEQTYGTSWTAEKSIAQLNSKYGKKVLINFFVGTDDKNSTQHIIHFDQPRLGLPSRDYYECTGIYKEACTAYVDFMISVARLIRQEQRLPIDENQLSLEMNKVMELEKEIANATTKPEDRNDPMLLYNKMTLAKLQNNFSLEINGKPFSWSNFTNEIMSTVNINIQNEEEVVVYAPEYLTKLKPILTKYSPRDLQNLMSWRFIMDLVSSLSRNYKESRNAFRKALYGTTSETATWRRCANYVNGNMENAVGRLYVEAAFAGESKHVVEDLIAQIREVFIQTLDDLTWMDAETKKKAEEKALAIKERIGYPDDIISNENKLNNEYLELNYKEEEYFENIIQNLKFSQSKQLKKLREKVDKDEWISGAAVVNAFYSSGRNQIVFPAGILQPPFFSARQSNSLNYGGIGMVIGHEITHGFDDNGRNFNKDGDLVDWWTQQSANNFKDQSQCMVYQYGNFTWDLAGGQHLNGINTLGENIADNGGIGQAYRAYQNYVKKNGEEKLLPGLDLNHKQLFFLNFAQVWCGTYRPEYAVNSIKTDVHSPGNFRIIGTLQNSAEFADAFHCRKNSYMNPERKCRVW
Nature of the experiment: Enkephalinase-inhibiting activity in vitro (inhibition of 3H-TGG generation from 3H-leucine enkephalin). It is filed as biochemical. The note with it: approximate, determined graphically; leucine enkephalin 5×10^-5 M; 30° C.; 30 min with enzyme; read-out: IC50 (concentration of test compound required for 50% inhibition of 3H-TGG generation). On the procedure: The compounds were investigated for enkephalinase-inhibiting activity using the following method.
Purified enkephalinase Al was obtained according to the following procedure (modification of the method of Gorenstein and Snyder, Life Science, Vol. 25, pages 2065-2070, 1979).
Rats were killed by decapitation and the striata dissected out on ice. The pooled tissues were homogenised in ice-cold Tris/hydrochloric acid buffer (50 mM, pH 7.70, 30 ml per gram of tissue) and centrifuged (50,000 g, 15 mins). The resulting supernatent was discarded and the remaining pellet washed three times. The washed pellet was solubilised by resuspension in half the volume of buffer as before containing 1.0% (v/v) Triton X-100 and incubated at 37° C. for 45 mins. The suspension was then centrifuged at 100,000 g for 60 mins and the solubilised enzymes contained in the supernatant separated by DEAE-cellulose column chromatography. Enkephalinase Al was further purified by Sephacryl S.300 chromatography.
Enkephalinase-inhibiting activity was estimated by the following procedure. 1.75 μl of leucine enkephalin (0.317 mg/ml), 0.5 μl of ^3 H-leucine enkephalin (tyrosyl-3,5-^3 H Enkephalin (5-L-Leucine), The Radiochemical Centre, Amersham, England) and 5.75 μl of buffer as before were incubated at 30° C. for 10 mins with 2 μl of either a solution of test compound (in either 50% ethanol/0.1 M sodium hydrogen carbonate or distilled water) or solvent alone as control. 10 μl of purified enkephalinase Al at 30° C. were added and incubation then continued for a further 30 mins (total incubation time 40 mins, final leucine enkephalin concentration 5×10^-5 M, final ^3 H-leucine enkephalin concentration 12.5 μCi/ml). At the completion of incubation 3 μl of 0.16 M hydrochloric acid was added and the incubation mixture cooled on ice.
Separation of (a) unchanged ^3 H-leucine enkephalin and (b) ^3 H-Tyr-Gly-Gly-OH (^3 H-TGG), generated from (a) by enkephalinase Al in the incubation mixture was effected by thin layer chromatography (plastic silica gel plates of 0.1 mm layer chromatography (plastic silica gel plates of 0.1 mm layer thickness, solvent system ethyl acetate: propan-2-ol: 5% (v/v) acetic acid, 2:2:1) using solutions of the cold compounds as carriers. After drying the materials were visualized with ninhydrin and appropriate areas of the plates cut out and placed in scintillation vials containing 50% methanol/0.1 M hydrochloric acid to elute the ^3 H label. Biofluor reagent (10 ml) was then added and the radioactivity determined by liquid scintillation counting.
The ^3 H-TGG generated in the presence of test compound (expressed as a percentage of the control figure) was then calculated and an approximate IC50 figure (concentration of test compound required for 50% inhibition of ^3 H-TGG generation) then determined graphically.
As to `COc1ccc(CC(C(=O)N[C@@H](CC(C)C)C(=O)O)P(=O)(O)O)cc1` (single isomer, unassigned) [Compound No. 1, N-[2-(Dihydroxyphosphinyl)-3-(4-methoxyphenyl)propionyl]-L-leucine], the IC50 amounted to 1.8 µM. On to `CCOC(=O)[C@H](CC(C)C)NC(=O)C(Cc1ccccc1)CP(=O)(O)O` (single isomer, unassigned) [compound 11], for which the IC50 was 0.68 µM.

`CCOC(=O)[C@H](CC(C)C)NC(=O)C(Cc1ccccc1)CP(=O)(O)O` (single isomer, unassigned) [compound 12]: the IC50 was determined as 100 µM. As to `CC(C)C[C@H](NC(=O)C(Cc1ccccc1)CP(=O)(O)O)C(=O)O` (single isomer, unassigned) [compound 13, N-[2-Benzyl-3-(dihydroxyphosphinyl)propionyl]leucine], the IC50 is 0.16 µM. The same measure, in the same setting: as for `CC(C)C[C@H](NC(=O)C(Cc1ccccc1)CP(=O)(O)O)C(=O)O` (single isomer, unassigned) [compound 14, N-[2-Benzyl-3-(dihydroxyphosphinyl)propionyl]leucine], the figure is 18 µM; as for `C[C@H](CS)C(=O)N1CCC[C@H]1C(=O)O` [Captopril, 1-(D-3-mercapto-2-methylpropanoyl)-L-proline (S,S), reference compound], 30 µM; as for `CC(C)C[C@H](NC(=O)C(Cc1ccccc1)P(=O)(O)O)C(=O)O` (stereo partly drawn) [Compound No. 7, N-[2-(Dihydroxyphosphinyl)-3-phenylpropionyl]-L-leucine tri-lithium salt], 0.68 µM. For `CC(C)C[C@H](NC(=O)C(Cc1ccc(Br)cc1)P(=O)(O)O)C(=O)O` (stereo partly drawn) [Compound No. 9, N-[3-(4-bromophenyl)-2-dihydroxyphosphinylpropionyl]-L-leucine, monosodium salt], the IC50 was 6.8 µM. With `CC(C)C[C@H](NC(=O)C(Cc1ccc(C(C)C)cc1)P(=O)(O)O)C(=O)O` (stereo partly drawn) [Compound No. 10, N-[2-dihydroxyphosphinyl-3-(4-isopropylphenyl)propionyl]-L-leucine, disodium salt], the IC50 came to 23 µM. The same measure, in the same setting: in the case of `CCOC(=O)[C@H](CC(C)C)NC(=O)C(Cc1ccccc1)P(=O)(O)O` (stereo partly drawn) [compound 4, N-[2-(Dihydroxyphosphinyl)-3-phenylpropionyl.-L-leucine] ethyl ester] it was 0.6 µM; in that of `CCOC(=O)[C@H](CC(C)C)NC(=O)C(Cc1ccccc1)P(=O)(O)O` (stereo partly drawn) [compound 5, N-[2-(Dihydroxyphosphinyl)-3-phenylpropionyl.-L-leucine] ethyl ester], 1.5 µM. Regarding `CC(C)C[C@H](NC(=O)C(Cc1ccccc1)P(=O)(O)O)C(=O)O` (stereo partly drawn) [compound 6, N-[2-(Dihydroxyphosphinyl)-3-phenylpropionyl]-L-leucine tri-lithium salt], the IC50 was found to be 0.13 µM.

The experiment is the same for the next values; noted with them: no effect at 3 × 10^-5; leucine enkephalin 5×10^-5 M; 30° C.; 30 min with enzyme; read-out: IC50 (footnote symbol: no effect).
As for `CCOC(=O)[C@H](CC(C)C)NC(=O)C(Cc1ccccc1)P(=O)(OCC)OCC` (stereo partly drawn) [compound 2, N-[2-(Diethoxyphosphinyl)-3-phenylpropionyl]-L-leucine ethyl ester], the IC50 was greater than 30 µM. Turning to `CCOP(=O)(OCC)C(Cc1ccccc1)C(=O)N[C@@H](CC(C)C)C(=O)O` (stereo partly drawn) [compound 8, N-[2-(Diethoxyphosphinyl)-3-phenylpropionyl]-L-leucine], the IC50 was greater than 30 µM.
